Test system: gene expression in Col-0 seedling shoots
Assay: Microarray analysis (ATH1 Affymetrix) after BL or abrasin treatment
Assay type: in vivo, Arabidopsis
Experimental: FIG. 14: Clustering of gene expression profiles by QT-clust analysis. Clusters illustrating the major patterns of the data sets. Points: BIK-30: 30 μM abrasin 30 min; BL-30: 1 μM brassinolide 30 min; DMSO-30: control DMSO 30 min; BIK-120: 30 μM abrasin 120 min; BL-120: 1 μM brassinolide 120 min; DMSO-120: control DMSO 120 min.
Col-0 seeds were germinated vertically on ½ MS medium for 7 days under 16 h light/8 h dark cycles. The seedlings were overlaid with liquid ½ MS medium containing 1 μM brassinolide (BL, Fuji Chemical Industries, Ltd., Toyama, Japan), 30 μM abrasin (BIK, ChemBridge Corporation) and DMSO and treated for 30 and 120 min. The shoot parts were collected for RNA isolation. All sampling points were performed in three independent experiments. RNA was extracted using RNeasy kit (Qiagene). […] total RNA per array was used to hybridise the ATH1 Affymetrix Arabidopsis arrays according to standard procedure. The overrepresentation analyses were performed using BiNGO software (Maere et al., 2005).
We performed a microarray analysis using the Arabidopsis whole genome chip (Affymetix) to determine whether abrasin activated the expression of BR-inducible genes at transcriptional level. Wild-type Col-0 seedlings were exposed to 1 μM BL, 30 μM ABRASIN and DMSO (mock-treatment) for two time points (30 min and 120 min) and the shoot parts were collected for RNA isolation. The analysis of the variance of the normalized gene expression data took in account the variability parameters affecting the expression level: type of hormone treatment, duration of treatment and the interaction between these two.

O=C(O)CCC(=O)Nc1ccc(Br)cn1 [abrasin, 4-[(5-bromo-2-pyridinyl)amino]-4-oxobutanoic acid]
Fold-change of gene AT2G42380 (bZIP transcription factor family protein) (30 min, 265877_at, Cluster 6): 1.65 | Fold-change of gene AT2G45080 (cyclin family protein) (30 min, 266124_at, Cluster 8): 0.77 | Fold-change AT1G04330 expressed protein (120 min): 4.41 | Fold-change AT1G05470 endonuclease/exonuclease/phosphatase family protein (120 min): 2.59 | Fold-change AT1G06520 Encodes a membrane associated mitochondrial localized protein (120 min): 2.28 | Fold-change AT1G06570 4-hydroxyphenylpyruvate dioxygenase (HPD) (120 min): 0.29 | Fold-change AT1G10550 xyloglucan:xyloglucosyl transferase (120 min): 1.66 | Fold-change AT1G12710 F-box family protein (120 min): 1.41 | Fold-change AT1G12750 rhomboid family protein (120 min): 1.60 | Fold-change AT1G14130 2-oxoglutarate-dependent dioxygenase (120 min): 2.47 | Fold-change AT1G14700 purple acid phosphatase (120 min): 0.47 | Fold-change AT1G16640 transcriptional factor B3 family protein (120 min): 2.20 | Fold-change AT1G17230 leucine-rich repeat family protein (120 min): 0.22 | Fold-change AT1G18020; AT1G17990 [AT1G18020, 12-oxophytodienoate reductase, (120 min): 1.78 | Fold-change AT1G19320 pathogenesis-related thaumatin family protein (120 min): 0.50 | Fold-change AT1G20350 mitochondrial import inner membrane translocase subunit (120 min): 2.67 | Fold-change AT1G21050 expressed protein (120 min): 0.14 | Fold-change AT1G21760 F-box family protein (120 min): 0.46 | Fold-change AT1G22360 UDP-glucoronosyl/UDP-glucosyl transferase family protein (120 min): 0.32 | Fold-change AT1G23080 auxin efflux carrier protein (PIN7) (120 min): 0.33 | Fold-change AT1G26800 zinc finger (C3HC4-type RING finger) family protein, (120 min): 4.39 | Fold-change AT1G27730 zinc finger (C2H2 type) family protein (120 min): 1.06 | Fold-change AT1G28130 encodes an IAA-amido synthase (120 min): 0.40 | Fold-change AT1G28190 expressed protein (120 min): 1.65 | Fold-change AT1G28480 glutaredoxin family protein (120 min): 3.97 | Fold-change AT1G31040 zinc-binding protein-related (120 min): 4.37 | Fold-change AT1G31310 hydroxyproline-rich glycoprotein family protein (120 min): 2.45 | Fold-change AT1G31770 ABC transporter family protein (120 min): 0.50 | Fold-change AT1G32190 expressed protein (120 min): 0.07 | Fold-change AT1G32690 expressed protein (120 min): 0.26 | Fold-change AT1G36940 expressed protein (120 min): 0.32 | Fold-change AT1G49780 U-box domain-containing protein (120 min): 0.56 | Fold-change AT1G53870; AT1G53890 [AT1G53870, expressed protein (120 min): 0.51 | Fold-change AT1G54050 17.4 kDa class III heat shock protein (HSP17.4-CIII) (120 min): 2.86 | Fold-change AT1G54200 expressed protein (120 min): 2.19 | Fold-change AT1G55920 serine O-acetyltransferase (120 min): 2.16 | Fold-change AT1G57560 myb family transcription factor (MYB50) (120 min): 2.65 | Fold-change AT1G59590 expressed protein (120 min): 2.08 | Fold-change AT1G59660 nucleoporin family proteinmily (120 min): 2.94 | Fold-change AT1G62300 WRKY family transcription factor (120 min): 0.71 | Fold-change AT1G63050 membrane bound O-acyl transferase (MBOAT) family protein (120 min): 0.27 | Fold-change AT1G66160 U-box domain-containing protein, (120 min): 1.91 | Fold-change AT1G66890 expressed protein (120 min): 0.14 | Fold-change AT1G68330 expressed protein (120 min): 2.78 | Fold-change AT1G68810 basic helix-loop-helix (bHLH) family protein (120 min): 0.41 | Fold-change AT1G69160 expressed protein (120 min): 0.33 | Fold-change AT1G70990 proline-rich family protein (120 min): 3.50 | Fold-change AT1G71030 Encodes a putative myb family transcription factor (120 min): 0.46 | Fold-change AT1G72060 expressed protein (120 min): 5.97 | Fold-change AT1G72180 leucine-rich repeat transmembrane protein kinase (120 min): 0.11 | Fold-change AT1G72800 nuM1-related, contains (120 min): 2.15 | Fold-change AT1G75270 dehydroascorbate reductase (120 min): 2.62 | Fold-change AT1G75500 nodulin MtN21 family protein (120 min): 0.37 | Fold-change AT1G76240 expressed protein, (120 min): 0.07 | Fold-change AT1G76410 zinc finger (C3HC4-type RING finger) (120 min): 0.16 | Fold-change AT1G79110 expressed protein (120 min): 0.45 | Fold-change AT1G79630 protein phosphatase 2C family protein (120 min): 0.35 | Fold-change AT1G80440 kelch repeat-containing F-box family protein (120 min): 2.89 | Fold-change AT2G01300 expressed protein (120 min): 3.12 | Fold-change AT2G01990 expressed protein, (120 min): 2.56 | Fold-change AT2G04240 zinc finger (C3HC4-type RING finger) family protein (120 min): 1.72 | Fold-change AT2G05540 glycine-rich protein (120 min): 0.54 | Fold-change AT2G12290; AT4G19700 [AT2G12290, expressed protein]; [AT4G19700, expressed protein] (120 min): 0.53 | Fold-change AT2G18010 auxin-responsive family protein (SAUR10) (120 min): 3.94 | Fold-change AT2G19800 expressed protein (120 min): 2.22 | Fold-change AT2G22860 phytosulfokines 2 (PSK2) (120 min): 0.19 | Fold-change AT2G23180 cytochrome P450, putative (120 min): 0.36 | Fold-change AT2G23320 WRKY family transcription factor (120 min): 1.19 | Fold-change AT2G26530 expressed protein (120 min): 1.99 | Fold-change AT2G26710 cytochrome p450 family (BAS1) (120 min): 2.26 | Fold-change AT2G28510 Dof-type zinc finger domain-containing protein (120 min): 1.19 | Fold-change AT2G29340 short-chain dehydrogenase/reductase (SDR) family protein (120 min): 3.73 | Fold-change AT2G29990 pyridine nucleotide-disulphide oxidoreductase family protein (120 min): 1.38 | Fold-change AT2G30070 potassium transporter (KUP1) (120 min): 0.22 | Fold-change AT2G31230 encodes a member of the ERF (ethylene response factor) (120 min): 3.17 | Fold-change AT2G34650 protein kinase PINOID (PID) (120 min): 2.52 | Fold-change AT2G36220 expressed protein (120 min): 2.76 | Fold-change AT2G37590 Dof-type zinc finger domain-containing protein (120 min): 5.81 | Fold-change AT2G38470 WRKY family transcription factor (120 min): 1.34 | Fold-change AT2G39710 aspartyl protease family protein (120 min): 2.52 | Fold-change AT2G40340; AT2G40350 [AT2G40340, encodes a member of the DREB subfamily A-2 of ERF/AP2 (120 min): 3.20 | Fold-change AT2G41250 haloacid dehalogenase-like hydrolase family protein (120 min): 0.33 | Fold-change AT2G41640 expressed protein (120 min): 2.53 | Fold-change AT2G42280 basic helix-loop-helix (bHLH) family protein (120 min): 0.28 | Fold-change AT2G43060 expressed protein, similar to cDNA bHLH transcription factor (120 min): 0.25 | Fold-change AT2G43280 far-red impaired responsive family protein (120 min): 0.48 | Fold-change AT2G43290 calmodulin-like protein (MSS3) (120 min): 1.45 | Fold-change AT2G44130 kelch repeat-containing F-box family protein (120 min): 7.72 | Fold-change AT2G44500 expressed protein (120 min): 2.19 | Fold-change AT2G45210 auxin-responsive protein-related (120 min): 0.24 | Fold-change AT2G45680 TCP family transcription factor (120 min): 0.46 | Fold-change AT2G46225 Encodes a subunit of the WAVE complex (120 min): 0.58 | Fold-change AT2G47440 DNAJ heat shock N-terminal domain-containing protein (120 min): 1.64 | Fold-change AT3G04210 disease resistance protein (TIR-NBS class), putative, (120 min): 3.17 | Fold-change AT3G09920 phosphatidylinositol-4-phosphate 5-kinase family protein (120 min): 1.07 | Fold-change AT3G12920 expressed protein (120 min): 0.31 | Fold-change AT3G13040 myb family transcription factor (120 min): 0.48 | Fold-change AT3G13510 expressed protein (120 min): 0.42 | Fold-change AT3G13980 expressed protein (120 min): 0.08 | Fold-change AT3G14370 protein kinase family protein (120 min): 2.16 | Fold-change AT3G14560 expressed protein (120 min): 0.35 | Fold-change AT3G16570 rapid alkalinization factor (RALF) family protein (120 min): 0.36 | Fold-change AT3G17860 expressed protein (120 min): 0.45 | Fold-change AT3G18830 polyol/cyclitol/monosaccharide-H+-symporte (120 min): 2.60 | Fold-change AT3G19380 U-box domain-containing protein (120 min): 0.48 | Fold-change AT3G23030 auxin-responsive protein/indoleacetic acid-induced protein 2 (IAA2) (120 min): 0.25 | Fold-change AT3G23550 MATE efflux family protein (120 min): 0.38 | Fold-change AT3G25710 basic helix-loop-helix (bHLH) family protein (120 min): 0.10 | Fold-change AT3G25900 homocysteine S-methyltransferase 1 (HMT-1) (120 min): 2.67 | Fold-change AT3G26910 hydroxyproline-rich glycoprotein family protein (120 min): 1.85 | Fold-change AT3G30180 cytochrome p450 enzyme (120 min): 0.06 | Fold-change AT3G46880 expressed protein, (120 min): 1.51 | Fold-change AT3G47800 aldose 1-epimerase family protein (120 min): 0.57 | Fold-change AT3G48970 copper-binding family protein (120 min): 0.38 | Fold-change AT3G49810 U-box domain-containing protein (120 min): 1.12 | Fold-change AT3G50650 scarecrow-like transcription factor 7 (SCL7) (120 min): 2.48 | Fold-change AT3G50660 steroid 22-alpha-hydroxylase (CYP90B1) (DWF4) (120 min): 0.02 | Fold-change AT3G50750 brassinosteroid signalling positive regulator-related (BEH1) (120 min): 0.31 | Fold-change AT3G52490 heat shock protein-related (120 min): 2.41 | Fold-change AT3G53810 lectin protein kinase (120 min): 2.23 | Fold-change AT3G54950 patatin-related, (120 min): 0.43 | Fold-change AT3G55120 chalcone-flavanone isomerase (120 min): 0.39 | Fold-change AT3G55150 exocyst subunit EXO70 family protein (120 min): 0.48 | Fold-change AT3G55840 expressed protein (120 min): 6.96 | Fold-change AT3G61460 zinc finger (C3HC4-type RING finger) family protein (BRH1) (120 min): 0.32 | Fold-change AT3G63300 expressed protein (120 min): 2.07 | Fold-change AT4G01680 myb family transcription factor (MYB55) (120 min): 0.14 | Fold-change AT4G02410 lectin protein kinase family protein (120 min): 1.55 | Fold-change AT4G08040 1-aminocyclopropane-1-carboxylate synthase, putative (120 min): 0.02 | Fold-change AT4G09460 myb family transcription factor (120 min): 3.27 | Fold-change AT4G12390 invertase/pectin methylesterase inhibitor family protein (120 min): 0.44 | Fold-change AT4G12410 auxin-responsive family protein (120 min): 0.31 | Fold-change AT4G14130 xyloglucan:xyloglucosyl transferase (120 min): 0.02 | Fold-change AT4G15975 zinc finger (C3HC4-type RING finger) family protein (120 min): 3.28 | Fold-change AT4G16146 expressed protein (120 min): 0.49 | Fold-change AT4G16563 aspartyl protease family protein (120 min): 1.65 | Fold-change AT4G16670 expressed protein (120 min): 0.34

From US8273775B2, “Non-steroidal brassinosteroid mimetic” (priority 2006, dated 2012)
